Source: the supplement of paper PMC10307832

What was measured:
Assay in all cases: relative viability (nuclei count vs DMSO), 5 days (fraction); higher = more cells survive
[1] = compound: COC1=CC=C(C=C1)CN2C=CC3=C2C=C(C=C3)C(=O)NO + C[C@@H](Oc1cc(-c2cnn(C3CCNCC3)c2)cnc1N)c1c(Cl)ccc(F)c1Cl [Crizotinib] (partner 1 µM)
How it was run: (§1)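 Lung cancer cell lines in 1536-well plates got either a single drug or a fixed anchor-drug dose together with five library-drug doses (not always all listed) in √10 steps, by pin tool, on the day after seeding. Nuclei were counted after 5 days, and relative viability is the treated-to-vehicle ratio of nuclei counts. Values are medians of duplicate plates.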

Veliparib + OSI-027 = compound: C[C@]1(c2nc3c(C(N)=O)cccc3[nH]2)CCCN1 [Veliparib] + COc1cccc2cc(-c3nc([C@H]4CC[C@H](C(=O)O)CC4)n4ncnc(N)c34)[nH]c12 [OSI-027] (partner 0.5 µM)
How it was run: as §1

[2] = compound: COC1=CC=C(C=C1)CN2C=CC3=C2C=C(C=C3)C(=O)NO + Nc1ncn([C@H]2C[C@H](O)[C@@H](CO)O2)c(=O)n1 [Decitabine] (partner 2 µM)
How it was run: as §1

[3] = compound: COC1=CC=C(C=C1)CN2C=CC3=C2C=C(C=C3)C(=O)NO + COc1cccc2cc(-c3nc([C@H]4CC[C@H](C(=O)O)CC4)n4ncnc(N)c34)[nH]c12 [OSI-027] (partner 0.5 µM)
How it was run: as §1

Row | Cell Line | relative viability ([1]; first compound 0.253 µM) | relative viability ([1]; first compound 0.8 µM) | relative viability ([1]; first compound 2.53 µM) | relative viability ([1]; first compound 8 µM) | relative viability (Veliparib + OSI-027; first compound 0.02 µM) | relative viability (Veliparib + OSI-027; first compound 0.06325 µM) | relative viability (Veliparib + OSI-027; first compound 0.2 µM) | relative viability (Veliparib + OSI-027; first compound 0.6325 µM) | relative viability (Veliparib + OSI-027; first compound 2 µM) | relative viability ([2]; first compound 0.253 µM) | relative viability ([2]; first compound 0.8 µM) | relative viability ([2]; first compound 2.53 µM) | relative viability ([2]; first compound 8 µM) | relative viability ([3]; first compound 0.08 µM) | relative viability ([3]; first compound 0.253 µM) | relative viability ([3]; first compound 0.8 µM) | relative viability ([3]; first compound 2.53 µM) | relative viability ([3]; first compound 8 µM) | relative viability ([1]; first compound 0.08 µM) | relative viability ([2]; first compound 0.08 µM)
1 | LCLC-97TM1 | 0.285 | 0.395 | 0.259 | 0.237 | 0.51 | 0.5 | 0.505 | 0.433 | 0.587 | 0.224 | 0.236 | 0.225 | 0.181 | 0.346 | 0.531 | 0.546 | 0.342 | 0.374 | – | –
2 | HOP-62 | 0.833 | 1.01 | 1.01 | 0.959 | 0.756 | 0.734 | 0.798 | 0.792 | 0.761 | 0.217 | 0.216 | 0.27 | 0.244 | 0.729 | 0.888 | 0.909 | 0.871 | 0.758 | 0.826 | 0.173
3 | NCI-H1915 | 0.892 | 0.935 | 0.905 | 0.857 | 0.587 | 0.616 | 0.545 | 0.567 | 0.574 | 0.284 | 0.259 | 0.275 | 0.262 | 0.564 | 0.656 | 0.643 | 0.599 | 0.532 | 0.777 | 0.239
4 | NCI-H1437 | 0.961 | 0.993 | 0.989 | 0.939 | 0.694 | 0.959 | 0.878 | 0.759 | 0.844 | 0.608 | 0.547 | 0.576 | 0.606 | 0.774 | 0.907 | 0.897 | 0.807 | 0.907 | 0.661 | 0.558
5 | UMC-11 | 0.704 | 0.564 | 0.554 | 0.56 | 0.508 | 0.471 | 0.472 | 0.469 | 0.415 | 0.369 | 0.595 | 0.575 | 0.509 | – | 0.469 | 0.554 | 0.463 | 0.477 | 0.269 | –
6 | HCC-44 | 0.781 | 0.824 | 0.852 | 0.815 | 0.556 | – | 0.478 | 0.682 | 0.479 | 0.992 | 0.974 | 0.988 | 0.881 | 0.465 | 0.453 | 0.498 | 0.554 | 0.454 | 0.746 | 0.943
